Experimental data published in ChEMBL document CHEMBL5625206, “Design, synthesis, and evaluation of novel pleuromutilin aryl acrylate derivatives as promising broad-spectrum antibiotics especially for combatting multi-drug resistant gram-negative bacteria” (Eur J Med Chem, 2023).
≈ marks a conversion by molar mass, not a printed value. Calls of active or inactive are those of the source. No cut-off for these calls is given here.

How the values were obtained:
[1] = Toxicity in Sprague-Dawley rat assessed as animal death at 10 to 100 mg/kg, IG measured for 14 days; type: organism-based; conditions: in vivo, po, 336 h, dose 10-100 mg/kg, time 14 day
[2] = Toxicity in fasted male Sprague-Dawley rat assessed as relative heart weight ratio at 100 mg/kg, IG measured for 14 days (reference value: 0.396 +/- 0.043); type: organism-based; conditions: in vivo, po, 336 h, time 14 day
[3] = Toxicity in fasted male Sprague-Dawley rat assessed as body weight at 224 mg/kg, IG measured after 7 days (reference value: 260.5 +/- 12.7 g); type: organism-based; conditions: in vivo, po, 168 h, time 7 day
[4] = Toxicity in fasted female Sprague-Dawley rat assessed as relative spleen weight ratio at 331 mg/kg, IG measured for 14 days (reference value: 0.223 +/- 0.019); type: organism-based; conditions: in vivo, po, 336 h, time 14 day
Mycoplasmopsis synoviae = test: Anti-mycoplasma activity against Mycoplasmopsis synoviae MS-MVU1852-NCTC10124 assessed as bacterial growth inhibition incubated for 7 days; type: functional; conditions: MS-MVU1852-NCTC10124, 168 h, time 7 day
[5] = Toxicity in fasted Sprague-Dawley rat assessed as mortality rate at 331 mg/kg, IG measured for 14 days; type: organism-based; conditions: in vivo, po, time 14 day
Staphylococcus aureus [6] = test: Antibacterial activity against methicillin-resistant Staphylococcus aureus ATCC 33591 infected in neutropenic Kunming mouse model assessed as reduction in infection-induced inflammatory cell infiltration in kidney at 20 mg/kg, ip measured after 7 days; type: functional, organism-based; conditions: time 7.0 day
Staphylococcus aureus [7] = test: Antibacterial activity against methicillin-resistant Staphylococcus aureus ATCC 33591 infected in neutropenic Kunming mouse model assessed as reduction in infection-induced inflammatory cell infiltration in lung at 20 mg/kg, ip measured after 7 days; type: functional, organism-based; conditions: time 7.0 day
[8] = Toxicity in fasted male Sprague-Dawley rat assessed as relative lung weight ratio at 500 mg/kg, IG measured for 14 days (reference value: 0.437 +/- 0.064); type: organism-based; conditions: in vivo, po, 336 h, time 14 day
Staphylococcus aureus [9] = test: Induction of cell damage in methicillin-resistant Staphylococcus aureus ATCC 33591 assessed as intracellular pH at MIC incubated for 30 mins by fluorescence based analysis (reference value: 6.34 +/- 0.10); type: functional; conditions: 0.5 h
[10] = Toxicity in fasted female Sprague-Dawley rat assessed as relative lung weight ratio at 148 mg/kg, IG measured for 14 days (reference value: 0.534 +/- 0025); type: organism-based; conditions: in vivo, po, 336 h, time 14 day
[11] = Clearance in fasted Sprague-Dawley rat at 1 mg/kg, iv by LC-MS/MS analysis; type: ADME, organism-based; conditions: in vivo
[12] = Toxicity in fasted male Sprague-Dawley rat assessed as relative testis weight ratio at 148 mg/kg, IG measured for 14 days (reference value: 0.993 +/- 0.052); type: organism-based; conditions: in vivo, po, 336 h, time 14 day
[13] = Toxicity in fasted male Sprague-Dawley rat assessed as relative heart weight ratio at 148 mg/kg, IG measured for 14 days (reference value: 0.396 +/- 0.043); type: organism-based; conditions: in vivo, po, 336 h, time 14 day
[14] = Toxicity in neutropenic Kunming mouse model infected with methicillin-resistant Staphylococcus aureus ATCC 33591 assessed as survival rate at 20 mg/kg, ip measured after 7 days relative to control; type: organism-based; conditions: in vivo, 168 h, time 7 day
[15] = Toxicity in fasted Sprague-Dawley rat assessed as mortality rate at 100 mg/kg, IG measured for 14 days; type: organism-based; conditions: in vivo, po, time 14 day
Staphylococcus aureus [16] = test: Induction of cell damage in methicillin-resistant Staphylococcus aureus ATCC 33591 assessed as fold increase in extracellular ATP concentration at MIC incubated for 30 mins by fluorescence based analysis relative to control; type: functional; conditions: 0.5 h
[17] = Half life in fasted Sprague-Dawley rat at 1 mg/kg, iv by LC-MS/MS analysis; type: ADME, organism-based; conditions: in vivo
Staphylococcus aureus [18] = test: Antibacterial activity against methicillin-resistant Staphylococcus aureus ATCC 33591 infected in neutropenic Kunming mouse model administered intraperitoneally measured after 7 days; type: functional; conditions: ATCC 33591, 168 h, route ip, time 7 day
Pseudomonas aeruginosa = test: Antibacterial activity against multidrug-resistant Pseudomonas aeruginosa 126 clinical isolate assessed as bacterial growth inhibition incubated for 24 hrs by CLSI based broth microdilution method; type: functional
Klebsiella pneumoniae = test: Antibacterial activity against multidrug-resistant Klebsiella pneumoniae 893 clinical isolate assessed as bacterial growth inhibition incubated for 24 hrs by CLSI based broth microdilution method; type: functional
[19] = Cytotoxicity against human HepG2 cells incubated for 24 hrs by CCK8 assay; type: toxicity, cell-based
[20] = Toxicity in fasted female Sprague-Dawley rat assessed as relative liver weight ratio at 224 mg/kg, IG measured for 14 days (reference value: 3.199 +/- 0.062); type: organism-based; conditions: in vivo, po, 336 h, time 14 day
[21] = Toxicity in fasted female Sprague-Dawley rat assessed as body weight at 331 mg/kg, IG measured after 7 days (reference value: 188.2 +/- 9.2 g); type: organism-based; conditions: in vivo, po, 168 h, time 7 day
[22] = Toxicity in fasted male Sprague-Dawley rat assessed as animal growth rate at 224 mg/kg, IG measured for 14 days (reference value: 46.53 +/- 3.19 g); type: organism-based; conditions: in vivo, po, 336 h, time 14 day
[23] = Toxicity in fasted female Sprague-Dawley rat assessed as relative kidney weight ratio at 500 mg/kg, IG measured for 14 days (reference value: 0.802 +/- 0.031); type: organism-based; conditions: in vivo, po, 336 h, time 14 day
Staphylococcus aureus [24] = test: Induction of cell damage in methicillin-resistant Staphylococcus aureus ATCC 33591 assessed as fold increase in extracellular ATP concentration at 2 times MIC incubated for 30 mins by fluorescence based analysis relative to control; type: functional; conditions: 0.5 h
[25] = Toxicity in fasted male Sprague-Dawley rat assessed as relative spleen weight ratio at 500 mg/kg, IG measured for 14 days (reference value: 0.246 +/- 0.037); type: organism-based; conditions: in vivo, po, 336 h, time 14 day
Staphylococcus aureus [26] = test: Antibacterial activity against methicillin-resistant Staphylococcus aureus ATCC 33591 infected in neutropenic Kunming mouse model assessed as reduction in infection-induced inflammatory cell inflammation in liver at 10 mg/kg, ip measured after 7 days; type: functional, organism-based; conditions: time 7.0 day
Escherichia coli [27] = test: Induction of extracellular electrical conductivity in Escherichia coli ATCC 25922 at MIC incubated for 6 hrs; type: functional, organism-based
[28] = Toxicity in fasted male Sprague-Dawley rat assessed as relative heart weight ratio at 224 mg/kg, IG measured for 14 days (reference value: 0.396 +/- 0.043); type: organism-based; conditions: in vivo, po, 336 h, time 14 day
[29] = Toxicity in fasted female Sprague-Dawley rat assessed as body weight at 148 mg/kg, IG measured after 7 days (reference value: 188.2 +/- 9.2 g); type: organism-based; conditions: in vivo, po, 168 h, time 7 day
Escherichia coli [30] = test: Bactericidal activity against Escherichia coli ATCC 25922 assessed as reduction in colony count at 2 times MIC incubated for 24 hrs by time kill assay relative to control; type: functional
[31] = AUC (0 to t) in fasted Sprague-Dawley rat at 1 mg/kg, iv by LC-MS/MS analysis; type: ADME, organism-based; conditions: in vivo
[32] = Toxicity in fasted female Sprague-Dawley rat assessed as body weight at 100 mg/kg, IG measured after 14 days (reference value: 214.3 +/- 9.8 g); type: organism-based; conditions: in vivo, po, 336 h, time 14 day
[33] = Toxicity in fasted male Sprague-Dawley rat assessed as relative kidney weight ratio at 224 mg/kg, IG measured for 14 days (reference value: 0.820 +/- 0.072); type: organism-based; conditions: in vivo, po, 336 h, time 14 day

With `C=C[C@]1(C)C[C@@H](OC(=O)COC(=O)/C=C/c2ccc(N(C)C)cc2)[C@]2(C)[C@H](C)CC[C@]3(CCC(=O)[C@H]32)[C@@H](C)[C@@H]1O` the Activity [1] was “Non-Toxic”, the Ratio [2] was 0.396 and the Activity [3] was 257.1 g. It also gave a Ratio [4] of 0.247, an MIC (Mycoplasmopsis synoviae) of 0.008 µg/mL (≈ 0.0145 µM) and a mortality at 336 h [5] of 0%. For the same compound, the Activity (Staphylococcus aureus [6]) was “Active”, the Activity (Staphylococcus aureus [7]) was “Active” and the Ratio [8] was 0.399. For the same compound, the pH (Staphylococcus aureus [9]) was 4.27, the Ratio [10] was 0.494 and the clearance [11] was 35 mL/min/kg. It also gave a Ratio [12] of 0.99, a Ratio [13] of 0.379 and a Survival [14] of 90%. The mortality at 336 h [15] was 0%, the “fold change (FC)” value (Staphylococcus aureus [16]) was 4.01 and the half-life [17] was 40.8 min. The ED50 (Staphylococcus aureus [18]) was 9.04 mg/kg, the MIC (Pseudomonas aeruginosa) was 32 µg/mL (≈ 58 µM) and the MIC (Klebsiella pneumoniae) was 64 µg/mL (≈ 116 µM). For the same compound, the CC50 at 24 h [19] was greater than 200 µM, the Ratio [20] was 3.197 and the Activity [21] was 196.2 g. For the same compound, the Activity [22] was 45.2%, the Ratio [23] was 0.798 and the “fold change (FC)” value (Staphylococcus aureus [24]) was 3.21. The Ratio [25] was 0.209, the Activity (Staphylococcus aureus [26]) was “inactive” and the Activity (Escherichia coli [27]) was “Active”. The Ratio [28] was 0.38, the Activity [29] was 181.4 g and the Activity (Escherichia coli [30]) was 6.14 log10CFU/ml. It also gave an AUC(0-t) [31] of 512 ng·h/mL, an Activity [32] of 214.6 g and a Ratio [33] of 0.808.
